Experimental data published in patent publication US20180193361A1, “GUT ANTI-INFLAMMATORY AGENTS FOR REGULATION OF HIGH BLOOD GLUCOSE LEVELS” (UNIVERSITY HEALTH NETWORK, priority 2015, published 2018).

What was measured:
[1] = system: Lck-Cre PPARγfl/fl T cells; assay: In vitro IFNγ secretion, T cells lacking PPARγ (Lck-Cre PPARγfl/fl); type: cell-based, mice; settings: HFD-fed Lck-Cre+ PPARγfl/fl vs WT, 5-ASA in vitro 0.01-1 mM
Protocol: Mice. Mice were fed either NCD (15 kcal % fat) or HFD (Research Diets, 60 kcal % fat, irradiated) starting at 6 weeks of age. All studies were performed under the approval of Animal User Protocols by the Animal Care Committee at the University Health Network. Mice were maintained in a pathogen-free, temperature-controlled environment on a 12-hour light and dark cycle. All mice used in comparative studies were male, age-matched, and litter mates where possible. […] We confirmed T cell-specific floxing of the PPARγ gene in Lck-Cre+ PPARγfl/fl mice by qPCR with a minimum of at least 90% reduction in PPARγ expression. […] To measure the effect of IFNγ on tight-junction gene expression, we treated MODE-K cells with recombinant mouse IFNγ (Biolegend). We purified bulk dendritic cells and T cells from murine small bowels and spleens using a negative selection DC or T cell isolation kit (Stem Cell Technologies). We plated T cells at 5×10^5 cells/well with plate-bound anti-CD3/CD28 (1 μg/ml, Biolegend). […] We collected supernatants for cytokine measurements after 72 hour incubation. […] We measured serum cytokines by Luminex Multiplex cytokine assay (Millipore, run by the UHN Microarray Center), and quantified IL-10 and IFN-γ in supernatants of anti-CD3/CD28-stimulated splenocytes or bowel immune cells (Winer et al., 2009b) by ELISA (Biolegend).

[2] = system: intestinal epithelial barrier; assay: Gut permeability assay (FD4); type: in vivo, mice; settings: HFD vs HFD 5-ASA, 12-16 weeks of diet, 4 hours after gavage
Protocol: We measured gut permeability in overnight fasted mice 4 hours after oral gavage with 0.4 mg/g of FITC-conjugated dextran (Sigma) as described (Dong et al., 2014).

[3] = system: colon and small bowel lamina propria T cells; assay: Flow cytometry of colon and small bowel lamina propria T cells, HFD or HFD 5-ASA; type: in vivo, mice; settings: HFD vs HFD 5-ASA 1500 mg/kg/day, 16 weeks
Description: Isolation of bowel immune cells. For isolation of small intestine lamina propria immune cells, we used the protocol described by Fritz et al (Fritz et al., 2012), and processed approximately 10 cm from the distal end of the small intestine (jejunum and ileum). For the isolation of colonic lamina propria immune cells, we used the protocol described by Geddes et al (Geddes et al., 2011). Following lamina propria isolations, we passed immune cells through 70 μm strainers, and used them for flow cytometry.
We stained single cell suspensions for 30 min on ice with commercial antibodies. Flow cytometry antibodies including CD45.2 (104), CD3 (145-2C11), CD4 (GK1.5), CD8 (53-6.7), CD25 (PC61), γδTcR (GL3), Foxp3 (150D), IL-17 (TC11-18H10.1), IFNγ XMG1.2), α4β7 (DATK32), CCR9 (CW-1.2), CD11b (M1/70), F4/80 (BM8), CD11c (N418), CD206 (C068C2), Gr-1 (RB6-8C5), IL-7Rα (A7R34), B220 (RA3-6B2), Thy1.2 (30-H12), NKp46 (29A1.4), and Sca-1 (D7) were purchased from Biolegend. Intracellular staining was performed using a Foxp3 staining buffer kit (eBioscience). We acquired data on a Fortessa flow cytometer (BD Biosciences) and analyzed it with FlowJo software (Tree Star). We gated ILCs as described (Kirchberger et al., 2013).

HFD-fed C57BL/6 mice = assay: Metabolic studies, mice fed HFD or HFD 5-ASA from 6 weeks of age (preventative); type: in vivo
Protocol: (§1) Mice. Mice were fed either NCD (15 kcal % fat) or HFD (Research Diets, 60 kcal % fat, irradiated) starting at 6 weeks of age. All studies were performed under the approval of Animal User Protocols by the Animal Care Committee at the University Health Network. Mice were maintained in a pathogen-free, temperature-controlled environment on a 12-hour light and dark cycle. All mice used in comparative studies were male, age-matched, and litter mates where possible. […] We confirmed T cell-specific floxing of the PPARγ gene in Lck-Cre+ PPARγfl/fl mice by qPCR with a minimum of at least 90% reduction in PPARγ expression. […] We measured body weights, GTTs, ITTs, serum insulin, and fat cell diameter as previously described (Winer et al., 2009a). All GTTs were performed with a 1.5 g/kg glucose i.p. injection unless indicated otherwise. We fixed VAT, colons and small bowel ileums, from mice for 48 h in 10% buffered formalin before processing and hematoxylin/eosin staining. We enumerated crown-like structures (CLSs) in VAT by counting the number of adipocytes completely surrounded by immune cells identified on hematoxylin/eosin staining per 100× low power field. Analysis of histochemical stains was performed in a blinded fashion by two certified pathologists (S.W. and D.W.).

[4] = system: C57BL/6 mice on HFD with established metabolic disease; assay: Treatment of established obesity-associated IR (switch to HFD 5-ASA after 8 weeks HFD); type: in vivo; settings: 8 weeks HFD then 8 weeks HFD 5-ASA (1500 mg/kg/day) vs HFD only
Protocol: as §1, with “otherwise.” for “otherwise. We fixed VAT, colons and small bowel ileums, from mice for 48 h in 10% buffered formalin before processing and hematoxylin/eosin staining. We enumerated crown-like structures (CLSs) in VAT by counting the number of adipocytes completely surrounded by immune cells identified on hematoxylin/eosin staining per 100× low power field. Analysis of histochemical stains was performed in a blinded fashion by two certified pathologists (S.W. and D.W.).”

[5] = HFD vs HFD 5-ASA 1500 mg/kg/day in diet, after 12-14 weeks
[6] = HFD vs HFD 5-ASA 1500 mg/kg/day, 14 weeks

Nc1ccc(O)c(C(=O)O)c1 [5-ASA, 5-aminosalicylic acid]
suppressive effects on IFNγ with loss of PPARγ in T cells [1]: abrogated | intestinal epithelial barrier permeability (plasma FD4) [2]: significant improvements | IFNγ-secreting CD8+ T cells ([3]; colon and small bowel): reduction | IL-17-secreting γδ T cells ([3]; colon and small bowel): reduction | Th1 cells ([3]; colon and small bowel): reduction | Tregs ([3]; small bowel): significant increase | glucose tolerance (HFD-fed C57BL/6 mice; 5-ASA dose range 150 mg/kg/day up to 1500 mg/kg/day in mice): beneficial effects | liver steatosis (HFD-fed C57BL/6 mice; HFD vs HFD 5-ASA 1500 mg/kg/day in diet): reduced | VAT weight (HFD-fed C57BL/6 mice; [5]): no significant difference | adipocyte size (HFD-fed C57BL/6 mice; [5]): no significant difference | body weight (HFD-fed C57BL/6 mice; [5]): no significant difference | number of crown-like structures in VAT (HFD-fed C57BL/6 mice; [5]): no significant difference | organ weights (HFD-fed C57BL/6 mice; [5]): no significant difference | fasting glucose (HFD-fed C57BL/6 mice; [6]): significant improvements | fasting insulin (HFD-fed C57BL/6 mice; [6]): significant improvements | glucose tolerance (GTT) (HFD-fed C57BL/6 mice; [6]): significant improvements | insulin tolerance (ITT) (HFD-fed C57BL/6 mice; [6]): significant improvements | effects on metabolic disease (GTT, ITT) (HFD-fed C57BL/6 mice; lower dose 150 mg/kg/day in HFD, 24 weeks): beneficial effects | body weight [4]: did not change | glucose tolerance [4]: significant improvements | insulin tolerance [4]: significant improvements
